Experimental data: patent publication US8952024B2, “Herbicidal pyrimidone derivatives” (E I du Pont de Nemours and Company, priority 2009, dated 2015)

Legend:
Test in all cases: Test B pre-/postemergence plant response
Format in all cases: in vivo
[1] = system: bermudagrass (Cynodon dactylon); details: for Plant response rating, Bermudagrass: Postemergence
Summary of the method: (§1)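 Visual injury, 0–100 scale (100 = complete control), rated against controls after 13 to 15 days in greenhouse. Pre-emergence: seeds in loam/sand soil, treated at planting. Post-emergence: 1- to 4-leaf plants (2 to 18 cm) in peat/vermiculite medium. Compounds formulated in non-phytotoxic solvent with surfactant.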

kochia (Kochia scoparia) = details: for Plant response rating, Kochia: Postemergence
Summary of the method: as §1

[2] = system: large crabgrass (Digitaria sanguinalis); details: for Plant response rating, Crabgrass, Large: Postemergence
Summary of the method: as §1

[3] = system: woolly cupgrass (Eriochloa villosa); details: for Plant response rating, Cupgrass, Woolly: Postemergence
Summary of the method: as §1

soybean (Glycine max) = details: for Plant response rating, Soybean: Postemergence
Summary of the method: as §1

[4] = system: johnsongrass (Sorghum halepense); details: for Plant response rating, Johnsongrass: Postemergence
Summary of the method: as §1

[5] = system: lambsquarters (Chenopodium album); details: for Plant response rating, Lambsquarters: Postemergence
Summary of the method: as §1

[6] = system: ragweed (common ragweed, Ambrosia elatior); details: for Plant response rating, Ragweed: Postemergence
Summary of the method: as §1

[7] = system: yellow nutsedge (Cyperus esculentus); details: for Plant response rating, Nutsedge, Yellow: Postemergence
Summary of the method: as §1

[8] = system: green foxtail (Setaria viridis); details: for Plant response rating, Foxtail, Green: Postemergence
Summary of the method: as §1

[9] = system: goosegrass (Eleusine indica); details: for Plant response rating, Goosegrass: Postemergence
Summary of the method: as §1

[10] = system: velvetleaf (Abutilon theophrasti); details: for Plant response rating, Velvetleaf: Postemergence
Summary of the method: as §1

[11] = system: wheat (Triticum aestivum); details: for Plant response rating, Wheat: Postemergence
Summary of the method: as §1

[12] = 62 g ai/ha, postemergence, 0 is no effect, 100 is complete control, 13 to 15 days
[13] = 31 g ai/ha, 0 to 100 scale (0 no effect, 100 complete control)
[14] = 125 g ai/ha, scale 0 to 100 (0 no effect, 100 complete control)
[15] = 250 g ai/ha, scale 0 to 100 (0 no effect, 100 complete control), 13 to 15 days

Compound: CCCn1c(-c2cccc(C(F)(F)F)c2)ncc(C(=O)C2=C(O)CCCC2=O)c1=O [Compound 155]
- Bermudagrass plant response rating (0 to 100 scale) [1, 12]: 98
- Plant response rating, Bermudagrass [1, 13]: 85
- Plant response rating, Bermudagrass [1, 14]: 98
- Plant response rating, Bermudagrass [1, 15]: 100
- Kochia plant response rating (0 to 100 scale) (kochia (Kochia scoparia); [12]): 100
- Plant response rating, Kochia (kochia (Kochia scoparia); [13]): 35
- Plant response rating, Kochia (kochia (Kochia scoparia); [14]): 100
- Plant response rating, Kochia (kochia (Kochia scoparia); [15]): 100
- Crabgrass, Large plant response rating (0 to 100 scale) [2, 12]: 75
- Plant response rating, Crabgrass, Large [2, 13]: 60
- Plant response rating, Crabgrass, Large [2, 14]: 80
- Plant response rating, Crabgrass, Large [2, 15]: 90
- Cupgrass, Woolly plant response rating (0 to 100 scale) [3, 12]: 45
- Plant response rating, Cupgrass, Woolly [3, 13]: 20
- Plant response rating, Cupgrass, Woolly [3, 14]: 65
- Plant response rating, Cupgrass, Woolly [3, 15]: 75
- Soybean plant response rating (0 to 100 scale) (soybean (Glycine max); [12]): 95
- Plant response rating, Soybean (soybean (Glycine max); [13]): 95
- Plant response rating, Soybean (soybean (Glycine max); [14]): 100
- Plant response rating, Soybean (soybean (Glycine max); [15]): 100
- Johnsongrass plant response rating (0 to 100 scale) [4, 12]: 40
- Plant response rating, Johnsongrass [4, 13]: 10
- Plant response rating, Johnsongrass [4, 14]: 65
- Plant response rating, Johnsongrass [4, 15]: 70
- Lambsquarters plant response rating (0 to 100 scale) [5, 12]: 100
- Plant response rating, Lambsquarters [5, 13]: 98
- Plant response rating, Lambsquarters [5, 14]: 100
- Plant response rating, Lambsquarters [5, 15]: 100
- Ragweed plant response rating (0 to 100 scale) [6, 12]: 70
- Plant response rating, Ragweed [6, 13]: 45
- Plant response rating, Ragweed [6, 14]: 90
- Plant response rating, Ragweed [6, 15]: 95
- Nutsedge, Yellow plant response rating (0 to 100 scale) [7, 12]: 45
- Plant response rating, Nutsedge, Yellow [7, 13]: 20
- Plant response rating, Nutsedge, Yellow [7, 14]: 70
- Plant response rating, Nutsedge, Yellow [7, 15]: 75
- Foxtail, Green plant response rating (0 to 100 scale) [8, 12]: 50
- Plant response rating, Foxtail, Green [8, 13]: 25
- Plant response rating, Foxtail, Green [8, 14]: 80
- Plant response rating, Foxtail, Green [8, 15]: 80
- Goosegrass plant response rating (0 to 100 scale) [9, 12]: 80
- Plant response rating, Goosegrass [9, 13]: 65
- Plant response rating, Goosegrass [9, 14]: 85
- Plant response rating, Goosegrass [9, 15]: 98
- Velvetleaf plant response rating (0 to 100 scale) [10, 12]: 100
- Plant response rating, Velvetleaf [10, 13]: 100
- Plant response rating, Velvetleaf [10, 14]: 100
- Plant response rating, Velvetleaf [10, 15]: 100
- Wheat plant response rating (0 to 100 scale) [11, 12]: 30
- Plant response rating, Wheat [11, 13]: 15
- Plant response rating, Wheat [11, 14]: 40
- Plant response rating, Wheat [11, 15]: 70
